The source of these data is ChEMBL document CHEMBL1126448, “Synthesis and biological activity of putative mono-hydroxylated metabolites of velnacrine” (Bioorg Med Chem Lett, 1992).

Data set [1] concerns Mus musculus. Description: Compound was evaluated for reversal of scopolamine-induced memory impairment in mice when administered subcutaneously (1-10 mg/kg). The class given is functional.
Data set [2] in a line: Acute toxicity in mice when administered subcutaneously. To be noted: mouse, in vivo, sc.
Data set [3] has as its target T1, Acetylcholinesterase (Rattus norvegicus, UniProt P37136).
T1 sequence (P37136 whole entry): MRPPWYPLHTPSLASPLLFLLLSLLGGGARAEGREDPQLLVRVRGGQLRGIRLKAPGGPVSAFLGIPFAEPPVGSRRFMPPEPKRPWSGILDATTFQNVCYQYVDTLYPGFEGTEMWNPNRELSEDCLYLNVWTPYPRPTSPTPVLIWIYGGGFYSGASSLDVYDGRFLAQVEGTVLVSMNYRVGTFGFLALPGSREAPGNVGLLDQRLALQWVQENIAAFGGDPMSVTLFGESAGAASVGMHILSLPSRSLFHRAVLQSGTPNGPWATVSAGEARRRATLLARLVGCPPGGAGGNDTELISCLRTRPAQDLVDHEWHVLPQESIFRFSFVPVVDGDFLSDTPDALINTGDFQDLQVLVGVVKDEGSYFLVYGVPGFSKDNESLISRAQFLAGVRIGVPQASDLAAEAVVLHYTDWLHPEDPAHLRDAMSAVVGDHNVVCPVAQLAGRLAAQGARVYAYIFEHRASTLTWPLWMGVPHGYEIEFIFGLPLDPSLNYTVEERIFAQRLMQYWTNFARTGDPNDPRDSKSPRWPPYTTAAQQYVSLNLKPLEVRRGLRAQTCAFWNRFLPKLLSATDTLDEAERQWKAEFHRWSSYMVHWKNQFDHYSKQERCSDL
Description: Inhibition of acetylcholinesterase

For data set [4], the system named is Mus musculus. Description: Compound was evaluated for reversal of scopolamine-induced memory impairment in mice when administered subcutaneously; Not active (1-10 mg/kg). The class given is functional.
In data set [5] the test system is Mus musculus. Description: Compound was evaluated for reversal of scopolamine-induced memory impairment in mice when administered subcutaneously; Not active (0.16-5 mg/kg). Format: functional.
Data set [6] has as its system Mus musculus. Kind of data set: Compound was evaluated for reversal of scopolamine-induced memory impairment in mice when administered subcutaneously (0.31 - 5 mg/kg). The class given is functional. The note with it: route subcutaneous.
For data set [7], the system named is Mus musculus. Kind of data set: Compound was evaluated for reversal of scopolamine-induced memory impairment in mice when administered subcutaneously. Format: functional.

For orientation: LD50 means the dose at which mortality reaches 50%. A higher LD50 goes with lower toxicity. Broadly, the IC50 is the concentration needed to halve the response being measured.

Calls of active or inactive are those of the source. The calls are words filed in the database; no cut-off is given here. Where only a bound is given, the exact number is not on record here.

Regarding `Nc1c2c(nc3ccccc13)C[C@H](O)C[C@H]2O`, the Dose in data set [1] was 1 mg/kg. Besides, the LD50 in data set [2] is more than 80 mg/kg. Also, in data set [3], the half-maximal inhibitory concentration (IC50) came out at 14.7 µM.

Turning to `Nc1c2c(nc3c(O)cccc13)CCCC2O` (centres undefined), the Dose in data set [4] worked out at 1 mg/kg. This compound also returned a median lethal dose (LD50) in data set [2] of more than 80 mg/kg. For the same compound, the IC50 in data set [3] turned out to be 25.1 µM.

Consider `Nc1c2c(nc3cccc(O)c13)CCCC2O` (centres undefined), for which the Dose in data set [4] was 1 mg/kg. For the same compound, in data set [2], the median lethal dose (LD50) is more than 80 mg/kg. Also, in data set [3], the IC50 was 27.4 µM.

Regarding `Nc1c2c(nc3ccc(O)cc13)CCCC2O` (centres undefined), the Dose in data set [5] was found to be 0.16 mg/kg. Further, the LD50 in data set [2] is more than 80 mg/kg. Further, the IC50 in data set [3] came out at 10.6 µM.

Regarding `Nc1c2c(nc3ccccc13)[C@H](O)CC[C@H]2O`, the DOSE entry in data set [4] is “inactive”. Also, in data set [2], the LD50 was more than 80 mg/kg. The IC50 in data set [3] was 62.1 µM.

Regarding `Nc1c2c(nc3ccccc13)CCCC2O` (centres undefined) [VELNACRINE], the Dose in data set [6] amounted to 0.31 mg/kg. The compound further yielded an LD50 in data set [2] of more than 80 mg/kg. Also, the IC50 in data set [3] was 1.3 µM.

For the compound `Nc1c2c(nc3ccccc13)C[C@H](O)C[C@@H]2O`, the Dose in data set [1] worked out at 1 mg/kg. Besides, in data set [2], the LD50 was more than 80 mg/kg. In data set [3], this compound yielded an IC50 of 5.4 µM.

Take `Nc1c2c(nc3ccccc13)CC[C@H](O)[C@@H]2O`: the concentration for half-maximal inhibition (IC50) in data set [3] is more than 100 µM.

With `Nc1c2c(nc3cc(O)ccc13)CCCC2O` (centres undefined), the Dose in data set [5] came out at 0.16 mg/kg. Moreover, the LD50 in data set [2] was more than 80 mg/kg. The compound also yielded an IC50 in data set [3] of 64.4 µM.

Compound `Nc1c2c(nc3ccccc13)CC[C@H](O)[C@H]2O` yielded a half-inhibitory concentration (IC50) in data set [3] of more than 100 µM.

Turning to `Nc1c2c(nc3ccccc13)[C@H](O)CC[C@@H]2O`, the Dose in data set [7] amounted to 3 mg/kg. In data set [2], this compound returned an LD50 of more than 80 mg/kg. Further, the 50% inhibitory concentration (IC50) in data set [3] turned out to be 4.6 µM.
